US12285408B2, “Methods and compositions for the treatment of snake bite” (priority 2021, dated 2025)

Tests used:
[1] = system: procoagulant activities of viper venoms (E. ocellatus, E. carinatus, B. asper, D. russelii); assay: Plasma clotting assay, neutralization of procoagulant venom activity; format: biochemical; conditions: for IC50: range across all venoms, 100 ng venom, bovine plasma, read-out: IC50, inhibition of procoagulant activity
Text: FIG. 11. SVMP-inhibitors neutralize the in vitro procoagulant activities of several geographically distinct viper venoms. […] The data presented represents the maximum clotting velocity, calculated as the maximum of the first derivative of each clotting curve, from triplicate independent repeat experiments with SEMs, where each technical repeat represents the mean of n≥2 technical replicates. EOC, E. ocellatus; ECAR, E. carinatus; BAS, Bothrops asper, BAR, Bitis arietans; DRUS, Daboia russelii. (B) Neutralization of procoagulant venom activity by four SVMP-inhibitors across four drug concentrations (150 μM to 150 nM). The data is expressed as the maximum clotting velocity at each dose. The negative (PBS) and positive (venom-only) controls are presented as intervals (bottom dashed and top dashed lines, respectively), with the latter representing the mean maximum clotting velocity in these samples±SEM. The data represent triplicate independent repeats with SEMs, where each technical repeat represents the mean of n≥2 technical replicates. Note the different y-axis scales.
Since SVMPs are key toxins associated with causing coagulopathy, we next investigated whether the same peptidomimetic and metal chelating inhibitors could also neutralize the procoagulant bioactivities of viper venoms. To do so, we used a validated kinetic absorbance-based assay monitoring plasma clotting^35 in the presence or absence of venoms and inhibitors (FIG. 11).
We used a previously developed plasma clotting assay^35 to measure venom-induced coagulation. Briefly, 100 ng of each venom was incubated at 37° C. for 30 min in the presence or absence of inhibitors (150 μM to 150 nM final concentrations). The final reaction consisted of 10 μl venom±inhibitors in PBS, 20 μl 20 mM CaCl2), and 20 μl citrated bovine plasma (VWR). The samples were pipetted in triplicate into 384-well plates, and absorbance monitored at 595 nm for 2 h at 25° C. on an Omega FLUOstar instrument. We calculated the maximum clotting velocity of each of the curves as per clot waveform analysis^67, by calculating the maximum of the first derivative. The means of at least three independent experimental runs for each condition were plotted at each inhibitor concentration with SEMs.

[2] = system: procoagulant and anticoagulant toxins fractionated from D. russelii venom; assay: Nanofractionation of D. russelii venom with plasma coagulation assay; format: biochemical, Daboia russelii; conditions: inhibitor 20 μM to 0.0064 μM
Procedure: FIG. 12. […] The data is plotted separately for ‘very fast coagulation’, ‘medium coagulation’ and ‘anticoagulation’, based on the slopes of the 0-5 min and 0-20 min readings, and the single endpoint reading at 180 min. The tested inhibitor concentrations are presented alongside the chromatograms. […] The data is presented as the maximal clotting velocity at each concentration, and represents means of triplicate independent repeats with SEMs, where each technical repeat represents the mean of n≥2 technical replicates. The venom-only control (top dashed lines) and the negative control (bottom dashed lines) are presented as intervals and represent the average±SEM observed for the venom-only and PBS controls across all datasets and replicates.
Fifty microlitres of venom solution (D. russelii; 1 mg/ml) was injected into a Shimadzu LC-2010 system with nanofractionation in parallel. Separation was performed on a Waters XBridge reversed-phase C18 column (250×4.6 mm column with 3.5 μm pore-size) at 30° C. The total flow rate of the mobile phase solution was 0.5 ml/min with eluent A (98% H2O, 2% acetonitrile [ACN], 0.1% formic acid [FA]) and eluent B (98% ACN, 2% H2O, 0.1% FA). Liquid chromatography gradients consisted of a linear increase of mobile phase B from 0 to 50% in 20 min, followed by a linear increase to 90% B in 4 min, then isocratic at 90% B for 5 min, after which the percentage of mobile phase B was decreased from 90% to 0% in 1 min, followed by 10 min at 0% B to re-equilibrate. The effluent was split in a 1:9 ratio of which the 10% fraction was sent to a Shimadzu SPD-M20A prominence diode array detector and the 90% fraction was directed to a nanofractionation collector which dispensed the fractions into transparent 384-well plates (F-bottom, rounded square well, polystyrene, without lid, clear, non-sterile; Greiner Bio One, Alphen aan den Rijn, The Netherlands) at a resolution of 6 s/well. […]
The final assay concentrations of the inhibitors tested in the assay were 20 μM, 4 μM, 0.8 μM, 0.16 μM, 0.032 μM and 0.0064 μM. […] The plate was then read immediately for absorbance kinetically for 100 min at 595 nm at 25° C. using a Varioskan™ Flash Multimode Reader (Thermo Fisher Scientific, Ermelo, The Netherlands). The obtained results were normalized by dividing the slope measured in each well by the median of all slope values across the plate, and the processed coagulation chromatograms were plotted to visualize very fast coagulation, medium increased coagulation and anticoagulation, as previously described^37.

[3] = cited from earlier work

| SMILES | neutralization of procoagulant activities ([1]; E. ocellatus, E. carinatus and B. asper venoms, highest dose 150 μM) | IC50 [1] | inhibition of anticoagulant fractions of D. russelii venom [2] | inhibition of procoagulant fractions of D. russelii venom [2] | side effects ([3]; single doses of up to 800 mg, bidaily 200 mg for 6.5 days, or 75 mg daily for 28 days) | tolerability ([3]; Phase 1 and 2) | risk of major adverse cardiovascular events ([3]; Phase 2B, same daily dose, >300 patients for >6 months) | risk of myocardial infarction ([3]; Phase 3, acute coronary syndrome patients, 500 mg oral daily) |
| --- | --- | --- | --- | --- | --- | --- | --- | --- |
| O=S(=O)(O)CC(S)CS (centres unmarked) [DMPS, 2,3-dimercapto-1-propanesulfonic acid] | effective at neutralizing the procoagulant activities | 800 to 25900 nM | – | – | – | – | – | – |
| CNC(=O)[C@@H](NC(=O)[C@H](CC(C)C)[C@H](O)C(=O)NO)C(C)(C)C [marimastat] | – | 150 to 1920 nM | not neutralized by this inhibitor at any of the tested concentrations | effectively inhibited in a dose-dependent manner | no notable side effects | – | – | – |
| CCc1c(C(=O)C(N)=O)c2c(OCC(=O)O)cccc2n1Cc1ccccc1 [varespladib] | – | – | effectively inhibited the anticoagulant activity | some inhibitory effect against procoagulant venom toxins, but only at very high doses (20 μM) | – | well tolerated | no greater risk of major adverse cardiovascular events | greater risk of myocardial infarction than those receiving placebo |
